From patent US6384041B1, “Bicyclic sPLA2 inhibitors” (Eli Lilly and Company, priority 1998, dated 2002)

The compounds below were run against T1, recombinant human secreted phospholipase A2 (Homo sapiens, UniProt P14555) (assay: Human Recombinant hnp-sPLA2 Chromogenic Assay). Settings: not given.
T1 sequence (P14555 21-144): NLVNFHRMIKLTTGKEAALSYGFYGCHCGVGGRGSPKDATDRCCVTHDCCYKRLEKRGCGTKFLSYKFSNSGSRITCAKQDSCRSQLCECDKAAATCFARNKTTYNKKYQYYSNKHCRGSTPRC
Type: biochemical
Excerpt: The following chromogenic assay procedure was used to identify and evaluate inhibitors of recombinant human secreted phospholipase A2.The assay described herein has been adapted for high volume screening using 96 well microtiter plates. A general description of this assay method is found in the article, “Analysis of Human Synovial Fluid Phospholipase A2 on Short Chain Phosphatidylcholine-Mixed Micelles: Development of a Spectrophotometric Assay Suitable for a Microtiterplate Reader”, by Laure J. Reynolds, Lori L. Hughes, and Edward A Dennis, Analytical Biochemistry, 204, pp. 190-197, 1992 (the disclosure of which is incorporated herein by reference): Reagents:
Bovine Serum Albumin (fatty acid free) (1 g/L)
(Sigma A-7030, product of Sigma Chemical Co. St. Louis Mo., USA) […]
pH 7.5 (adjust with NaOH)
Adjust pH to 4.5 with acetic acid
DTNB—5,5′-dithiobis-2-nitrobenzoic acid
Racemic Diheptanoyl Thio-PC racemic 1,2-bis(heptanoylthio)-1,2-dideoxy-sn-glycero-3-phosphorylcholine TRITON X-100™ prepare at 6.249 mg/ml in reaction buffer to equal […].
A measured volume of racemic dipheptanoyl thio PC supplied in chloroform at a concentration of 100 mg/ml is taken to dryness and redissolved in 10 millimolar TRITON X-100™ nonionic detergent aqueous solution.
Reaction Buffer is added to the solution, then DTNB to give the Reaction Mixture.
The reaction mixture thus obtained contains lmM diheptanoly thio-PC substrate, 0.29 mm Triton X-100™ detergent, and 0.12 mm DTMB in a buffered aqueous solution at pH 7.5.
1. Add 0.2 ml reaction mixture to all wells;
2. Add 10 ul test compound (or solvent blank) to appropriate wells, mix 20 seconds;
3. Add 50 nanograms of sPLA2 (10 microliters) to appropriate wells;
4. Incubate plate at 40° C. for 30 minutes;
5. Read absorbance of wells at 405 nanometers with an automatic plate reader.
All compounds were tested in triplicate. Typically, compounds were tested at a final concentration of 5 ug/ml. […] Lack of color development at 405 nanometers evidenced inhibition. Compounds initially found to be active were reassayed to confirm their activity and, if sufficiently active, IC50 values were determined. […] In all cases, % inhibition measured at 405 nanometers generated by enzyme reactions containing inhibitors relative to the uninhibited control reactions was determined. Each sample was titrated in triplicate and result values were averaged for plotting and calculation of IC50 values. IC50 were determined by plotting log concentration versus inhibition values in the range from 10-90% inhibition.

In order of rising IC50:
1. CCc1c(C(=O)C(N)=O)c2c(OCC(=O)O)nc(SC)nc2n1Cc1ccccc1-c1ccccc1 [—H|—S-methyl|o-phenyl-phenyl, [[2-(methylthio)-5-(aminooxoacetyl)-6-ethyl-7-([1,1′-biphenyl]-2-ylmethyl)-7H-pyrrolo[2,3-d]pyrimidin-4-yl]oxy]acetic acid]  9 nM
2. CCc1c(C(=O)C(N)=O)c2c(OCC(=O)O)nc(Sc3ccccc3)nc2n1Cc1ccccc1 [—H|—S-phenyl|phenyl, [[2-(phenylthio)-5-(aminooxoacetyl)-6-ethyl-7-(phenylmethyl)-7H-pyrrolo[2,3-d]pyrimidin-4-yl]oxy]acetic acid]  11 nM
3. CCc1c(C(=O)C(N)=O)c2c(OCC(=O)O)nc(SC)nc2n1Cc1cccc(C(F)(F)F)c1 [—H|—S-methyl|m-CF3-phenyl, [[2-(methylthio)-5-(aminooxoacetyl)-6-ethyl-7-[[3-(trifluoromethyl)phenyl]methyl]-7H-pyrrolo[2,3-d]pyrimidin-4-yl]oxy]acetic acid]  13 nM
4. CCc1c(C(=O)C(N)=O)c2c(OCC(=O)O)nc(SC)nc2n1Cc1cccc(F)c1 [—H|—S-methyl|m-F-phenyl, [[2-(methylthio)-5-(aminooxoacetyl)-6-ethyl-7-[(3-fluorophenyl)methyl]-7H-pyrrolo[2,3-d]pyrimidin-4-yl]oxy]acetic acid]  16 nM
5. CCc1c(C(=O)C(N)=O)c2c(OCC(=O)O)nc(SC)nc2n1Cc1ccccc1 [—H|—SCH3|phenyl, [[2-(methylthio)-5-(aminooxoacetyl)-6-ethyl-7-(phenylmethyl)-7H-pyrrolo[2,3-d]pyrimidin-4-yl]oxy]acetic acid]  19 nM
6. CCc1c(C(=O)C(N)=O)c2c(OCC(=O)O)nc(SC)nc2n1Cc1cccc(Cl)c1 [—H|—S-methyl|m-Cl-phenyl, [[2-(methylthio)-5-(aminooxoacetyl)-6-ethyl-7-[(3-chlorophenyl)methyl]-7H-pyrrolo[2,3-d]pyrimidin-4-yl]oxy]acetic acid]  19 nM
7. CCc1c(C(=O)C(N)=O)c2c(OCC(=O)O)nc(OC)nc2n1Cc1ccccc1 [—H|—O—CH3|phenyl, [[2-methoxy-5-(aminooxoacetyl)-6-ethyl-7-(phenylmethyl)-7H-pyrrolo[2,3-d]pyrimidin-4-yl]oxy]acetic acid]  46 nM
8. CCc1c(C(=O)C(N)=O)c2c(OCC(=O)O)ncnc2n1Cc1ccccc1 [—H|—H|phenyl, [[5-(aminooxoacetyl)-6-ethyl-7-(phenylmethyl)-7H-pyrrolo[2,3-d]pyrimidin-4-yl]oxy]acetic acid]  48 nM
9. CCc1c(C(=O)C(N)=O)c2c(OCC(=O)O)nc(C)nc2n1Cc1ccccc1 [—H|—CH3|phenyl, [[2-methyl-5-(aminooxoacetyl)-6-ethyl-7-(phenylmethyl)-7H-pyrrolo[2,3-d]pyrimidin-4-yl]oxy]acetic Acid]  88 nM
10. CCc1c(C(=O)C(N)=O)c2c(OCC(=O)O)ncnc2n1Cc1cccc(Cl)c1 [—H|—H|m-Cl-phenyl, [[5-(aminooxoacetyl)-6-ethyl-7-[(3-chlorophenyl)methyl]-7H-pyrrolo[2,3-d]pyrimidin-4-yl]oxy]acetic acid]  91 nM
11. CCc1c(C(=O)C(N)=O)c2c(OCC(=O)O)ncnc2n1Cc1cccc(F)c1 [—H|—H|m-F-phenyl, [[5-(aminooxoacetyl)-6-ethyl-7-[(3-fluorophenyl)methyl]-7H-pyrrolo[2,3-d]pyrimidin-4-yl]oxy]acetic acid]  98 nM

Same assay, conditions: chromogenic assay, diheptanoyl thio-PC substrate, pH 7.5, 40° C. for 30 minutes, absorbance at 405 nm; average of n = 3-4; read-out: IC50 (micro-molar) n = 3 − 4 (ave)

In order of rising IC50:
1. CCc1c(C(=O)C(N)=O)c2c(OCC(=O)O)ncnc2n1Cc1ccccc1-c1ccccc1 [—H|—H|o-phenyl-phenyl, [[5-(aminooxoacetyl)-6-ethyl-7-([1,1′-biphenyl]-2-ylmethyl)-7H-pyrrolo[2,3-d]pyrimidin-4-yl]oxy]acetic acid]  114 nM
2. CCc1c(C(=O)C(N)=O)c2c(OCC(=O)O)ncnc2n1Cc1cccc(C(F)(F)F)c1 [—H|—H|m-CF3-phenyl, [[5-(aminooxoacetyl)-6-ethyl-7-[[3-(trifluoromethyl)phenyl]methyl]-7H-pyrrolo[2,3-d]pyrimidin-4-yl]oxy]acetic acid]  124 nM
3. CCc1c(C(=O)C(N)=O)c2c(OCC(=O)OC)nc(C)nc2n1Cc1ccccc1 [—CH3|—CH3|phenyl, [[2-methyl-5-(aminooxoacetyl)-6-ethyl-7-(phenylmethyl)-7H-pyrrolo[2,3-d]pyrimidin-4-yl]oxy]acetic acid methyl ester]  4650 nM
4. CCc1c(C(=O)C(N)=O)c2c(OCC(=O)OC)ncnc2n1Cc1ccccc1 [—CH3|—H|phenyl, [[5-(aminooxoacetyl)-6-ethyl-7-(phenylmethyl)-7H-pyrrolo[2,3-d]pyrimidin-4-yl]oxy]acetic acid methyl ester]  5460 nM
